Reference: paper PMC6641755 (ACS Omega, 2017)

Assays:
Format in all cases: binding
[1] = molecular target: Bruton's tyrosine kinase (Btk) kinase domain (Homo sapiens, UniProt Q06187); experiment: ITC titration
BLK = BLK (Homo sapiens, UniProt P51451); experiment: KinomeScan
[2] = molecular target: T1, TYK2 (JH1domain-catalytic) (Homo sapiens, UniProt P29597); experiment: KinomeScan
T1 sequence (P29597 897-1176 limits assumed): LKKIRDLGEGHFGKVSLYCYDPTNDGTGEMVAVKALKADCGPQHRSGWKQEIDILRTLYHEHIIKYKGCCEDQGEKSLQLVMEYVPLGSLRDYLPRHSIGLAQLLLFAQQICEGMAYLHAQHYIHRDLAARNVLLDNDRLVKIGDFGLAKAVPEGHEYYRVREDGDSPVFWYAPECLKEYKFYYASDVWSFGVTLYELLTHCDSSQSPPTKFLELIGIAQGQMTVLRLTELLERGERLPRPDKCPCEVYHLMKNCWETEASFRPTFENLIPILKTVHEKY

Chain of Bruton's tyrosine kinase (Btk) kinase domain (Q06187 387-569): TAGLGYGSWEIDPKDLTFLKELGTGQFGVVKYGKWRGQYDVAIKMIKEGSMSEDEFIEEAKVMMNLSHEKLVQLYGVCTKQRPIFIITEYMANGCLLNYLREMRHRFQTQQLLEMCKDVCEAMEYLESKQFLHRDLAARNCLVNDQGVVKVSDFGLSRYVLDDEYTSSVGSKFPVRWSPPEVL
Chain of BLK (P51451 2-505): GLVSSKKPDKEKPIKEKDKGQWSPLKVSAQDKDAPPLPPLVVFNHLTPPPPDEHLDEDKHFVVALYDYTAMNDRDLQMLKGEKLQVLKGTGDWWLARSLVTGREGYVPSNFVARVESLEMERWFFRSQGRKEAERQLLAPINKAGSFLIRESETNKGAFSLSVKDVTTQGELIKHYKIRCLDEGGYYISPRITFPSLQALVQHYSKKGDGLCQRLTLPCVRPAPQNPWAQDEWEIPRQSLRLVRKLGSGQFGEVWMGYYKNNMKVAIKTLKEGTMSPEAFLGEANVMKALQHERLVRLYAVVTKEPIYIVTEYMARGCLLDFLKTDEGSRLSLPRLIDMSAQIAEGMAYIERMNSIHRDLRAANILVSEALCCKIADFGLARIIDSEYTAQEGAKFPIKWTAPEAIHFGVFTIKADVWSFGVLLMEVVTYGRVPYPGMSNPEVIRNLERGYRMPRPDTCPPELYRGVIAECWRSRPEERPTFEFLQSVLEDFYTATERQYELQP

## c1nc2c(Nc3ccc4c(c3)OCCO4)nc(Nc3ccc4c(c3)OCCO4)nc2[nH]1 [L6, N2,N6-bis(2,3-dihydrobenzo[b][1,4]dioxin-6-yl)-9H-purine-2,6-diamine]
[1]
  Kd: 0.25 µM
BLK
  activity at 10 µM: 0.4%
[2]
  activity at 10 µM: 0.8%
